Test results: ChEMBL document CHEMBL4270495, “Oleanane-, ursane-, and quinone methide friedelane-type triterpenoid derivatives: Recent advances in cancer treatment” (Eur J Med Chem, 2017)

How the values were obtained:
HeLa [1] = test: Cytotoxicity in human HeLa cells assessed as reduction in cell viability incubated for 72 hrs by MTT assay; format: functional, cell-based
HT-29 [2] = test: Cytotoxicity in human HT-29 cells assessed as reduction in cell viability incubated for 72 hrs by MTT assay; format: functional, cell-based; settings: HT-29, 72 h
MDCK = test: Cytotoxicity in canine MDCK cells assessed as reduction in cell viability incubated for 72 hrs by MTT assay; format: cell-based; settings: Canis lupus familiaris
HepG2 [3] = test: Cytotoxicity in human HepG2 cells assessed as reduction in cell viability incubated for 72 hrs by MTT assay; format: functional, cell-based; settings: HepG2, 72 h
EA.hy 926 = test: Cytotoxicity in human EAhy926 cells assessed as reduction in cell viability incubated for 72 hrs by MTT assay; format: cell-based; settings: EA.hy 926, 72 h
H9c2 = test: Cytotoxicity in rat H9c2 cells assessed as reduction in cell viability incubated for 72 hrs by MTT assay; format: cell-based; settings: H9c2, 72 h
[4] = Cytotoxicity in human HELF cells assessed as reduction in cell viability incubated for 24 hrs by MTT assay; format: cell-based
HepG2 [5] = test: Cytotoxicity in human HepG2 cells assessed as reduction in cell viability incubated for 24 hrs by MTT assay; format: functional, cell-based; settings: HepG2, 24 h
AGS = test: Cytotoxicity in human AGS cells assessed as reduction in cell viability incubated for 24 hrs by MTT assay; format: functional, cell-based
HeLa [6] = test: Cytotoxicity in human HeLa cells assessed as reduction in cell viability incubated for 24 hrs by MTT assay; format: functional, cell-based
Bel-7402 = test: Cytotoxicity in human Bel7402 cells assessed as reduction in cell viability incubated for 72 hrs by MTT assay; format: functional, cell-based; settings: Bel-7402, 72 h
H4 = test: Cytotoxicity in human H4 cells assessed as reduction in cell viability incubated for 72 hrs by MTT assay; format: functional, cell-based; settings: H4, 72 h
PC-3 = test: Cytotoxicity in human PC3 cells assessed as reduction in cell viability incubated for 96 hrs by SRB assay; format: functional, cell-based; settings: PC-3, 96 h
HT-29 [7] = test: Cytotoxicity in human HT-29 cells assessed as reduction in cell viability incubated for 96 hrs by SRB assay; format: functional, cell-based; settings: HT-29, 96 h
MCF7 [8] = test: Cytotoxicity in human MCF7 cells assessed as reduction in cell viability incubated for 24 hrs by MTT assay; format: functional, cell-based; settings: MCF7, 24 h
TERT-RPE1 = test: Cytotoxicity in human hTERT-RPE1 cells assessed as reduction in cell viability incubated for 24 hrs by MTT assay; format: functional, cell-based; settings: RPE-1, 24 h
HCT-8 = test: Cytotoxicity in human HCT8 cells assessed as reduction in cell viability incubated for 96 hrs by SRB assay; format: functional, cell-based; settings: HCT-8, 96 h
MDA-MB-231 [9] = test: Cytotoxicity in human MDA-MB-231 cells assessed as reduction in cell viability incubated for 96 hrs by SRB assay; format: functional, cell-based; settings: MDA-MB-231, 96 h
MDA-MB-231 [10] = test: Cytotoxicity in human MDA-MB-231 cells assessed as reduction in cell viability incubated for 24 hrs by MTT assay; format: functional, cell-based; settings: MDA-MB-231, 24 h
HCT-116 = test: Cytotoxicity in human HCT116 cells assessed as reduction in cell viability incubated for 96 hrs by SRB assay; format: functional, cell-based; settings: HCT-116, 96 h
4T1 = test: Cytotoxicity in mouse 4T1 cells assessed as reduction in cell viability incubated for 96 hrs by SRB assay; format: functional, cell-based; settings: 4T1, 96 h
DU-145 = test: Cytotoxicity in human DU145 cells assessed as reduction in cell viability incubated for 96 hrs by SRB assay; format: functional, cell-based; settings: DU-145, 96 h
CT26 = test: Cytotoxicity in mouse CT26 cells assessed as reduction in cell viability incubated for 96 hrs by SRB assay; format: functional, cell-based; settings: CT26, 96 h
MCF7 [11] = test: Cytotoxicity in human MCF7 cells assessed as reduction in cell viability incubated for 48 hrs by SRB assay; format: functional, cell-based; settings: MCF7, 48 h
MDA-MB-231 [12] = test: Cytotoxicity in human MDA-MB-231 cells assessed as reduction in cell viability incubated for 48 hrs by SRB assay; format: functional; settings: MDA-MB-231, 48 h

Structure (SMILES) | IC50 (HeLa [1]) [µM] | IC50 (HT-29 [2]) [µM] | IC50 (MDCK) [µM] | IC50 (HepG2 [3]) [µM] | IC50 (EA.hy 926) [µM] | IC50 (H9c2) [µM] | IC50 (Bel-7402) [µM] | IC50 (H4) [µM] | also measured
COc1ccc(OC)c(/C=C/C(=O)O[C@H]2CC[C@]3(C)[C@H]4C(=O)C=C5[C@H]6C[C@@](C)(C(=O)O)CC[C@]6(C)CC[C@@]5(C)[C@]4(C)CC[C@H]3C2(C)C)c1 | 28 | 26.4 | > 50 | 25.4 | 45.1 | > 50 |  |  | 
COc1ccc(/C=C/C(=O)O[C@H]2CC[C@]3(C)[C@H]4C(=O)C=C5[C@H]6C[C@@](C)(C(=O)O)CC[C@]6(C)CC[C@@]5(C)[C@]4(C)CC[C@H]3C2(C)C)cc1 | 23.4 | 33 | 21.7 | 31.2 | > 50 | 36.1 |  |  | 
C[C@H]1[C@H](C)CC[C@]2(C(=O)NCCCCCCN)CC[C@]3(C)C(=CC[C@@H]4[C@@]5(C)CC[C@H](O)C(C)(C)[C@@H]5CC[C@]43C)[C@H]12 |  |  |  |  |  |  |  |  | IC50 [4]: 12.4 µM; IC50 (HepG2 [5]): 13.4 µM; IC50 (AGS): 16.6 µM; IC50 (HeLa [6]): 13.3 µM
CC(=O)Oc1cc2c(c(C)c1OC(C)=O)C(Sc1ccc(C)cc1)C=C1C2(C)CC[C@@]2(C)[C@@H]3C[C@](C)(C(=O)O)CC[C@]3(C)CC[C@]12C (single isomer, unassigned) |  |  |  |  |  |  | 0.45 | 0.37 | 
CC(=O)Nc1ccc(SC2C=C3C(C)(CC[C@@]4(C)[C@@H]5C[C@](C)(C(=O)O)CC[C@]5(C)CC[C@]34C)c3cc(OC(C)=O)c(OC(C)=O)c(C)c32)cc1 (single isomer, unassigned) |  |  |  |  |  |  | 0.46 | 0.35 | 
COc1ccc(/C=C/C(=O)O[C@H]2CC[C@]3(C)[C@H]4C(=O)C=C5[C@H]6C[C@@](C)(C(=O)O)CC[C@]6(C)CC[C@@]5(C)[C@]4(C)CC[C@H]3C2(C)C)c(OC)c1OC | 8.54 | 15 | 31.8 | 21.5 | 27.7 | > 50 |  |  | 
COc1cc(/C=C/C(=O)O[C@H]2CC[C@]3(C)[C@H]4C(=O)C=C5[C@H]6C[C@@](C)(C(=O)O)CC[C@]6(C)CC[C@@]5(C)[C@]4(C)CC[C@H]3C2(C)C)cc(OC)c1OC | 30.7 | 25.5 | 27.7 | 21.9 | 30.8 | 47.4 |  |  | 
CC(=O)CC1C=C2C(C)(CC[C@@]3(C)[C@@H]4C[C@](C)(C(=O)O)CC[C@]4(C)CC[C@]23C)c2cc(OC(C)=O)c(OC(C)=O)c(C)c21 (single isomer, unassigned) |  |  |  |  |  |  | > 150 | > 150 | 
CC(=O)O[C@H]1CC[C@]2(C)[C@H]3CC=C4[C@@H]5[C@@H](C)[C@H](C)CC[C@]5(C(=O)NCCN)CC[C@@]4(C)[C@]3(C)CC[C@H]2C1(C)C |  |  |  |  |  |  |  |  | IC50 [4]: 18.1 µM; IC50 (HepG2 [5]): 16.3 µM; IC50 (AGS): 14.5 µM; IC50 (HeLa [6]): 4.4 µM
COC(=O)[C@]1(C)CC[C@]2(C)CC[C@]3(C)C4=CC(c5c[nH]c6ccc(OC)cc56)c5c(cc(OC)c(OC)c5C)C4(C)CC[C@@]3(C)[C@H]2C1 (single isomer, unassigned) |  |  |  |  |  |  | 0.51 | 4.59 | 
Cc1c(O)c(O)cc2c1C(c1c[nH]c3cc(Cl)ccc13)C=C1C2(C)CC[C@@]2(C)[C@H]3C[C@](C)(C(=O)O)CC[C@]3(C)CC[C@]12C (single isomer, unassigned) |  |  |  |  |  |  | 6.53 | 7.83 | 
COC(=O)[C@]1(C)CC[C@]2(C)CC[C@]3(C)C4=CC(c5cn(C)c6cc(Cl)ccc56)c5c(cc(OC)c(OC)c5C)C4(C)CC[C@@]3(C)[C@H]2C1 (single isomer, unassigned) |  |  |  |  |  |  | 0.01 | 2.03 | 
Cc1ccc(/C=C/C(=O)O[C@H]2CC[C@]3(C)[C@H]4C(=O)C=C5[C@H]6C[C@@](C)(C(=O)O)CC[C@]6(C)CC[C@@]5(C)[C@]4(C)CC[C@H]3C2(C)C)cc1 | 14.2 | 21.7 | 38 | 22.1 | 27.6 | > 50 |  |  | 
CC(=O)O[C@H]1CC[C@]2(C)[C@H]3CC=C4[C@@H]5[C@@H](C)[C@H](C)CC[C@]5(C(=O)NCCCCN)CC[C@@]4(C)[C@]3(C)CC[C@H]2C1(C)C |  |  |  |  |  |  |  |  | IC50 [4]: 25.1 µM; IC50 (HepG2 [5]): 16 µM; IC50 (AGS): 14.1 µM; IC50 (HeLa [6]): 4.2 µM
COc1ccccc1/C=C/C(=O)O[C@H]1CC[C@]2(C)[C@H]3C(=O)C=C4[C@H]5C[C@@](C)(C(=O)O)CC[C@]5(C)CC[C@@]4(C)[C@]3(C)CC[C@H]2C1(C)C | 24.6 | 22.2 | 22.9 | 32 | > 50 | > 50 |  |  | 
CC1(C)[C@@H](O)CC[C@]2(C)[C@H]3C(=O)C=C4[C@H]5C[C@@](C)(C(=O)O)CC[C@]5(C)CC[C@@]4(C)[C@]3(C)CC[C@@H]12 | > 50 | > 50 | > 100 | > 50 | > 100 | > 100 |  |  | IC50 (PC-3): 88 µM; IC50 (HT-29 [7]): 77.2 µM; IC50 (MCF7 [8]): 75.7 µM; IC50 (TERT-RPE1): 63.4 µM; IC50 (HCT-8): 82.2 µM; IC50 (MDA-MB-231 [9]): 101 µM; IC50 (MDA-MB-231 [10]): 84.7 µM; IC50 (HCT-116): 75.1 µM; IC50 (4T1): 96.2 µM; IC50 (DU-145): 136 µM; IC50 (CT26): 70.5 µM
COc1cccc(/C=C/C(=O)O[C@H]2CC[C@]3(C)[C@H]4C(=O)C=C5[C@H]6C[C@@](C)(C(=O)O)CC[C@]6(C)CC[C@@]5(C)[C@]4(C)CC[C@H]3C2(C)C)c1 | 17.5 | 14.9 | 22.2 | 12.7 | 31 | > 50 |  |  | 
COc1ccc2[nH]cc(C3C=C4C(C)(CC[C@@]5(C)[C@H]6C[C@](C)(C(=O)O)CC[C@]6(C)CC[C@]45C)c4cc(O)c(O)c(C)c43)c2c1 (single isomer, unassigned) |  |  |  |  |  |  | 45.4 | 24.4 | 
COC(=O)[C@]1(C)CC[C@]2(C)CC[C@]3(C)C4=CC(c5c[nH]c6cc(C)ccc56)c5c(cc(OC)c(OC)c5C)C4(C)CC[C@@]3(C)[C@H]2C1 (single isomer, unassigned) |  |  |  |  |  |  | 0.02 | 7.88 | 
CC1(C)[C@@H](OC(=O)/C=C/c2ccccc2)CC[C@]2(C)[C@H]3C(=O)C=C4[C@H]5C[C@@](C)(C(=O)O)CC[C@]5(C)CC[C@@]4(C)[C@]3(C)CC[C@@H]12 | 23.7 | 22.3 | 22.6 | 24.4 | 28.9 | 46.1 |  |  | 
COc1cccc(/C=C/C(=O)O[C@H]2CC[C@]3(C)[C@H]4C(=O)C=C5[C@H]6C[C@@](C)(C(=O)O)CC[C@]6(C)CC[C@@]5(C)[C@]4(C)CC[C@H]3C2(C)C)c1OC | 22.5 | 24.4 | 33.7 | 24.4 | 25 | > 50 |  |  | 
COc1cccc2c1C(=O)c1c(O)c3c(c(O)c1C2=O)C[C@@](O)(C(=O)CO)C[C@@H]3O[C@H]1C[C@H](N)[C@H](O)[C@H](C)O1 [DOXORUBICIN] |  |  |  |  |  |  |  |  | IC50 (MCF7 [8]): 0.49 µM; IC50 (TERT-RPE1): 2.76 µM; GI50 (MCF7 [11]): 5.7 µM; GI50 (MDA-MB-231 [12]): 4.1 µM
C[C@H]1[C@H](C)CC[C@]2(C(=O)NCCCCN)CC[C@]3(C)C(=CC[C@@H]4[C@@]5(C)CC[C@H](O)C(C)(C)[C@@H]5CC[C@]43C)[C@H]12 |  |  |  |  |  |  |  |  | IC50 [4]: 15 µM; IC50 (HepG2 [5]): 14.4 µM; IC50 (AGS): 17.5 µM; IC50 (HeLa [6]): 14.5 µM
Cc1ccc2c(C3C=C4C(C)(CC[C@@]5(C)[C@H]6C[C@](C)(C(=O)O)CC[C@]6(C)CC[C@]45C)c4cc(O)c(O)c(C)c43)c[nH]c2c1 (single isomer, unassigned) |  |  |  |  |  |  | 5.52 | 6.66 | 
CC(=O)O[C@H]1CC[C@]2(C)[C@H]3CC=C4[C@@H]5[C@@H](C)[C@H](C)CC[C@]5(C(=O)NCCCCCCN)CC[C@@]4(C)[C@]3(C)CC[C@H]2C1(C)C |  |  |  |  |  |  |  |  | IC50 [4]: 14.9 µM; IC50 (HepG2 [5]): 7.2 µM; IC50 (AGS): 12.8 µM; IC50 (HeLa [6]): 3.8 µM
C[C@H]1[C@H](C)CC[C@]2(C(=O)NCCN)CC[C@]3(C)C(=CC[C@@H]4[C@@]5(C)CC[C@H](O)C(C)(C)[C@@H]5CC[C@]43C)[C@H]12 |  |  |  |  |  |  |  |  | IC50 [4]: 15.4 µM; IC50 (HepG2 [5]): 13.9 µM; IC50 (AGS): 17.7 µM; IC50 (HeLa [6]): 14.6 µM
